Assay results taken from paper PMC10904834 (Nature Communications, 2024).

Assays:
MoATG4 [1] = molecular target: T1, MoATG4 (Pyricularia oryzae, UniProt Q523C3); conditions: 10 uM compound; RT, 10 min preincubation; thiol-reactive, proposed covalent
T1 construct: gene ATG4

MoATG4 [2] = molecular target: T1, MoATG4; assay: biochemical
BcATG4 [3] = molecular target: T2, BcATG4 (Botrytis cinerea, UniProt A6SDQ3); assay: isothermal titration calorimetry
T2 construct: gene atg4

BcATG4 [4] = molecular target: T2, BcATG4

T1 sequence (Q523C3 whole entry, looked up): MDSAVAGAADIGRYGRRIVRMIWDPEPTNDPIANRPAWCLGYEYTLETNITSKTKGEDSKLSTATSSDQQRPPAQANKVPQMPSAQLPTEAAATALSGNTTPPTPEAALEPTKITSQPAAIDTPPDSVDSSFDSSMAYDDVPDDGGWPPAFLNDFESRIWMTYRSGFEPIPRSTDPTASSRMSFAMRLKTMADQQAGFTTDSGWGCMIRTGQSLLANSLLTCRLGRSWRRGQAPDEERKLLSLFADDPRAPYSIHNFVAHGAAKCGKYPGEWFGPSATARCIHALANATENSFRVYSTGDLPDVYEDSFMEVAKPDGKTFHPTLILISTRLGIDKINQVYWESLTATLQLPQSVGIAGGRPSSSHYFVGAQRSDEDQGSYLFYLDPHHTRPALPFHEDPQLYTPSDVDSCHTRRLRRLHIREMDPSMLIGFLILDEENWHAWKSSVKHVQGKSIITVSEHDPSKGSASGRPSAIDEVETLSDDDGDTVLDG
T2 sequence (A6SDQ3 whole entry): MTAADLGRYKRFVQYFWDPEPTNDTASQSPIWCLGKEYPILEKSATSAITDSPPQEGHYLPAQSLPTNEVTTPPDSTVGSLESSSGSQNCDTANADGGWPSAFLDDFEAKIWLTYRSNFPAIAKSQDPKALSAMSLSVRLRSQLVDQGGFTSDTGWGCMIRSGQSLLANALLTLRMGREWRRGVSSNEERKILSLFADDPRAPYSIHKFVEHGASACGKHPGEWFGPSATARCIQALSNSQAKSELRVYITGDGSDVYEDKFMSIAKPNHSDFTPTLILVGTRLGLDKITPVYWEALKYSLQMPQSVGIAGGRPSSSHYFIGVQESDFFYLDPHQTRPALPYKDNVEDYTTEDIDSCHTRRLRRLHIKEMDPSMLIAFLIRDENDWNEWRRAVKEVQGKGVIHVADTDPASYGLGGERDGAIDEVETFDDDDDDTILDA

O=c1c2ccccc2[se]n1-c1ccccc1 [EB, ebselen]
in vitro cleavage of Citrine-MoATG8-ShR sensor, western blot (MoATG4 [1]): strong inhibition of the MoATG4-mediated cleavage of MoATG8 by EB and its analogs
Kd (MoATG4 [2]): 1 nM
Kd (BcATG4 [3]): 3.4 nM
IC50 (BcATG4 [4]): 620 ± 30 nM

O=C1c2ccccc2[Se](=O)N1c1ccccc1 (centres unmarked) [EO, ebselen oxide]
in vitro cleavage of Citrine-MoATG8-ShR sensor, western blot (MoATG4 [1]): strong inhibition of the MoATG4-mediated cleavage of MoATG8 by EB and its analogs
IC50 (BcATG4 [4]): 500 ± 30 nM

Cc1ccc(-n2sc3ccccc3c2=O)cc1 [PT, 2-(4-methylphenyl)−1,2-benzisothiazol-3(2H)-one]
in vitro cleavage of Citrine-MoATG8-ShR sensor, western blot (MoATG4 [1]): strong inhibition of the MoATG4-mediated cleavage of MoATG8 by EB and its analogs
IC50 (BcATG4 [4]): 1790 ± 240 nM
